Experimental findings from US11026943B2, “Aminoquinoline derivatives and uses thereof” (UNIVERSITY OF DELHI, priority 2012, dated 2021) are described below.

Assay [1] deals with PC12 cells. In words: 6-OHDA toxicity in PC12 cells (MTT reduction assay). The format is cell-based, rat. On the procedure: Cell viabilities were determined by the conventional MTT reduction assay. After incubation for indicated times, cells were treated with the MTT solution (final concentration, 1 mg/ml, Sigma) for 1 h. Formazan grains formed in intact cells were solubilized with MTT Solubilization. Solution containing 10% Triton X-100 plus 0.1 N HCl in anhydrous isopropanol for 24 h and then absorbance at 570 nm was measured with a microplate reader (Molecular Devices, Menlo Park, Calif.).

In assay [2] the test system is primary cultures of rat mesencephalic DA neurons. In words: 6-OHDA-induced death in primary mesencephalic DA neurons (TH+ count, [3H]DA uptake). The class given is cell-based. Conditions: number of TH+ neurons and DA uptake; 20 μM 6-OHDA for 24 hr.
Procedure: Control DA neurons were treated with the above medium in the presence of a dopamine uptake blocker, 10 μM mazindol (Sigma). Cells were then washed with ice-cold Krebs Ringers solution and lysed with 0.5 M NaOH. Radioactivity was quantified by a liquid scintillation counter (Beckman, Fullerton, Calif.).
To prepare primary cultures of DA neurons, the ventral mesencephalon was removed from 14 day gestation Sprague Dawley rat embryo (Charles River, Cambridge, Mass.). Tissues were incubated with 0.01% trypsin in MEM (MEM, Invitrogen) for 10 min at 37° C. and triturated using a constricted Pasteur pipette. DA neurons were plated at 1.0×10^5 cells per 9 mm diameter glass cover slip precoated with 100 μg/ml poly-D-lysine (Sigma, St. Louis, Mo.) and 4 μg/ml laminin (Invitrogen). DA neurons were maintained at 37° C. in a humidified 5% CO2 atmosphere in minimum essential medium supplemented with 10% FBS (Hyclone), 2 mM glutamine and 6.0 g/l glucose. […]
Cells were fixed in 4% paraformaldehyde (PFA) for 20 min, washed and then incubated with blocking buffer [PBS, 10% goat serum (Invitrogen), 0.3% Triton X-100 (Sigma)] for 1 hour. […] Following washes with PBS, appropriate fluorescence-tagged secondary antibodies (Jackson Immunoresearch Laboratories, West Grove, Pa.) were used for visualization. […]
The target in assay [3] is T1, Nurr1 DBD (Mus musculus, UniProt Q06219).
T1 construct: the yeast transcription factor GAL4's DBD is fused to either Nurr1 LBD or DBD; expressed in transfected cells; host or cells: SK-N-BE(2)C human neuroblastoma cells
The assay is described as follows: GAL4 / GAL4-Nurr1 DBD reporter assay. The format is cell-based. (Reporter assays use an easily measured gene product as a stand-in for the process of interest.)

Assay [4] addresses T2, Nurr1 LBD with SRC-1/SRC-3 (Mus musculus, UniProt Q06219).
T2 construct: The Nurr1 LBD fragment from amino acid position 328 to amino acid position 598 was PCR-amplified; expressed in transfected cells; host or cells: SK-N-BE(2)C human neuroblastoma cells
In words: Nurr1 LBD transactivation with VP16-SRC1/VP16-SRC3 overexpression. The format is cell-based. The conditions noted are these: 30 μM AQ or 100 μM CQ for 16 hours.

Assay [5] deals with Nurr1 recruitment to TH promoter NL1 and NL3. The assay is described as follows: Chromatin immunoprecipitation in PC12 cells. The format is cell-based, rat. The conditions noted are these: 20 μM AQ or 75 μM CQ for 15 hrs. On the procedure:
Error bars represent standard deviations.
Cells were washed with PBS, fixed with 1% formaldehyde, lysed, and sonicated according to the manufacturer's instruction (Active Motif). 25 μg of soluble chromatin DNA were co-immunoprecipitated 1 μg of Nurr1 specific antibody (E-20, Santa Cruz) or control antibody (rabbit IgG, santa Cruz). […] Values are shown as fold induction compared to mock treated control cells.

The test system of assay [6] is 6-OHDA-lesioned rats. In words: 6-OHDA-lesioned rat model of PD (amphetamine rotation, TH+ and Iba-1 counts). The class given is in vivo. Here is the method:
Cells were fixed in 4% paraformaldehyde (PFA) for 20 min, washed and then incubated with blocking buffer [PBS, 10% goat serum (Invitrogen), 0.3% Triton X-100 (Sigma)] for 1 hour. Cells were then incubated overnight at 4° C. with primary antibodies with the primary antibody in PBS containing 1% normal goat serum and 0.1% Triton X-100. A rabbit polyclonal anti-TH antibody (1:500; Pel-Freez, Rogers, Ark.) was used as a primary antibody. Following washes with PBS, appropriate fluorescence-tagged secondary antibodies (Jackson Immunoresearch Laboratories, West Grove, Pa.) were used for visualization. Stained samples were mounted in […] with DAPI mounting solution (Vector Laboratories INC., Burlingame, Calif.) and photographed using epifluorescence microscope (Leica). […] The tissues were washed three times in PBS and incubated for 2 h with the secondary fluorescence-conjugated goat anti-mouse and rabbit antibody (DAKO, Denmark, Cy3, FITC, both dilutions at 1:1,000) and tissues were washed and mounted in Vectorshield. […] Tissues were visualized using fluorescence microscopy. […] The protection percentage of total TH^+ cells in the lesioned hemisphere of each rat brain was calculated by dividing total TH^+ cells in the intact hemisphere of each rat brain and multiplying […]. […]

T2 sequence (Q06219 328-598): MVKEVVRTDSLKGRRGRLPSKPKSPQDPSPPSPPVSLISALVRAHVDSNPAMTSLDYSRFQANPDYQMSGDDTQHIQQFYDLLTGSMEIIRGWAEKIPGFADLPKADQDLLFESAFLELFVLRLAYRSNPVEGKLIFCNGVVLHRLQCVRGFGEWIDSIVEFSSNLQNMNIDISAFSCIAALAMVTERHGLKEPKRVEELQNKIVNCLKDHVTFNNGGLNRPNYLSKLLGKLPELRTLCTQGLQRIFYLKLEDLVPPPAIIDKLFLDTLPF
T1 sequence (Q06219 260-335 limits assumed): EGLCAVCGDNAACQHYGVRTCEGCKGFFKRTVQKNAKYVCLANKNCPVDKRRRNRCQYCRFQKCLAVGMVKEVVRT

As to `CCN(CC)Cc1cc(Nc2ccnc3cc(Cl)ccc23)ccc1O` [AQ, amodiaquine], in assay [1], the “neuroprotective effect in PC12 cells” value is “neuroprotective effect”. The “6-OHDA-induced death in primary DA neurons” value in assay [2] is “significantly inhibit”. Besides, the “response with GAL4 or GAL4-Nurr1 DBD” value in assay [3] is on record as “no response”. Also, the “Nurr1 transcriptional function with SRC-1/SRC-3 overexpression” value in assay [4] was “further enhanced”. Besides, in assay [5], the “Nurr1 recruitment to NL1 and NL3 sites of the TH promoter” value was “recruited to both NL1 and NL3 sites”. The “6-OHDA-induced (amphetamine) rotation behavior” value in assay [6] (4 and 6 weeks post lesion, AQ 20 mg/kg i.p. twice per day, 2 weeks) is “significantly ameliorated”. Further, the “numbers of Iba-1+ microglia in ipsilateral SN and STR” value in assay [6] (after AQ treatment) is listed as “decreased to the levels of the contralateral sides”.
